According to patent US20190359560A1, “ANTI-INFLAMMATORY DRUG AND USES THEREOF” (KYUSHU UNIVERSITY, NATIONAL UNIVERSITY CORPORATION, priority 2015, published 2019):
pIC50: −log10 of the molar value. Values belong to the compound of their own block, whether it stands above or below them.

Assays:
[1] = tested on: alanine aminotransferase (ALT) activity in serum; assay: Serum ALT activity in DEN-induced hepatitis/hepatoma mouse model; assay type: in vivo; conditions: ICR mice, DEN 80 mg/L, 15 mg/kg in drinking water, 8 weeks and 12 weeks
Method: (§1) Diethylnitrosamine (DEN) dissolved in water at a concentration of 80 mg/L as drinking water was administered in drinking water to ICR mice, thereby inducing chronic inflammation in the liver. In addition, a group in which 15 mg/kg of the compound of Example 10 (NS-3-086) was administered in drinking water from immediately after the start of administration of DEN in drinking water was prepared. As a control group, a group given tap water as drinking water was used.
Subsequently, 8 weeks and 12 weeks after the start of administration of DEN in drinking water, blood was collected from the tails of mice of each group, and the alanine aminotransferase (ALT) activity in serum was measured using a commercially available kit (“Transaminase CII-Test Wako”, manufactured by Wako Pure Chemical Industries, Ltd.).

[2] = tested on: DEN-induced hepatitis/hepatoma mouse model; assay: DEN-induced hepatitis/hepatoma mouse model: hepatoma/tumor formation in liver after 14 weeks; assay type: in vivo; conditions: 15 mg/kg in drinking water
Method: Mice of a diethylnitrosamine (DEN)-induced hepatitis/hepatoma mouse model were divided into two groups, one receiving siRNA against G0S2 (G0S2 siRNA-administered group) and the other receiving negative control siRNA (control siRNA-administered group). Administration of siRNA to mice was carried out by tail vein administration of 1.6 nmol/mouse using a nucleic acid transfection reagent (trade name “LipoTrust™ EX Oligo <in vivo>, Hokkaido System Science Co., Ltd.). As the siRNA against G0S2, commercially available siRNA (Life Technologies, Inc., trade name “Stealth siRNA”, catalog number “#1320001”, the base sequence of the antisense strand is set forth in SEQ ID NO: 3) was used. As the control siRNA, a commercially available siRNA (Life Technologies, Inc., the base sequence of the antisense strand is set forth in SEQ ID NO: 4) was used.
Subsequently, mice of the same G0S2 siRNA-administered group and control siRNA-administered group as above were prepared. DEN was added to drinking water at a concentration of 80 mg/L from one day after the administration of siRNA to mice, and mice were sacrificed after 14 weeks of breeding and then subjected to analysis. As a result, the onset of hepatoma was inhibited in mice of the G0S2 siRNA-administered group.
as §1, with “inflammation and hepatoma” for “inflammation”
Subsequently, mice of each group were sacrificed 14 weeks after the start of administration of DEN in drinking water, and the liver was excised and analyzed. FIGS. 28A, 28B and 28C are photographs of the liver at 14 weeks after the start of administration of DEN in drinking water.

[3] = tested on: G0S2 mRNA; assay: G0S2 mRNA expression in human HepG2 cells; assay type: cell-based; conditions: 10 μM, 24 hours
[4] = tested on: G0S2 mRNA; assay: G0S2 mRNA expression in Hepa1-6 cells (qRT-PCR); assay type: cell-based, mouse; conditions: for G0S2 mRNA expression level: 48 hours, vs DMSO; for expression level of G0S2 mRNA: 10 μM, 24 hours
Method: The effect of the compound on the expression level of mRNA of the G0S2 gene was evaluated for the three compounds extracted so far. 24 hours after seeding with Hepa1-6 cells, the cells were exposed to hit compounds at 10 μM and sampling and total RNA extraction were carried out 24 hours later. Subsequently, changes in the expression level of mRNA of the G0S2 gene were measured by a qRT-PCR method.
Hepa1-6 cells were exposed to 10 μM of each of seven derivatives of Compound No. 2 (Examples 2 and 4 to 9) and an effect of the derivative compounds on the expression level of G0S2 mRNA after 24 hours was evaluated.
Therefore, Hepa1-6 cells were exposed to Compound No. 2 and the compound of Example 2 (NS-3-011) in the range of 0.5 to 5 μM and an effect of the compounds on the expression level of endogenous G0S2 mRNA after 48 hours was evaluated.
Subsequently, Hepa1-6 cells were transfected with siRNA against Hsd17b4 or control siRNA in the presence (10 μM) or absence (indicated as “DMSO” in FIG. 22B) of Compound No. 2. Subsequently, each cell was recovered after 48 hours and total RNA was extracted. Subsequently, the expression level of the G0S2 gene was quantified by real-time PCR.

[5] = tested on: Hsd17b4 gene; assay: Hsd17b4 knockdown in Hepa1-6 cells: Hsd17b4 gene expression (real-time PCR); assay type: cell-based, mouse; conditions: 48 hours after transfection, vs control siRNA
From the text: Hepα1-6 cells, which are mouse hepatoma-derived cells, were divided into two groups, in which one group was transfected with siRNA against Hsd17b4 and the other group was transfected with control siRNA. The base sequence of the sense strand of siRNA against Hsd17b4 is set forth in SEQ ID NO: 7, and the base sequence of the antisense strand thereof is set forth in SEQ ID NO: 8. In addition, commercially available siRNA (Life Technologies, Inc., the base sequence of the antisense strand is set forth in SEQ ID NO: 4) was used as the control siRNA.
Subsequently, each cell was recovered after 48 hours and total RNA was extracted. Subsequently, the expression level of the Hsd17b4 gene was quantified by real-time PCR.

[6] = tested on: nuclear receptor RARα mRNA; assay: RARα mRNA expression in Hepa1-6 cells (qRT-PCR); assay type: cell-based, mouse; conditions: 10 μM, 24 hours
[7] = tested on: G0S2 promoter (−2030→+10); assay: G0S2 promoter (−2030→+10) luciferase assay in Hepa1-6 cells; assay type: cell-based, mouse; conditions: Hepa1-6 reporter cells, 10 μM, 24 hours
Method: To get closer to the environment in the liver, a cell stably expressing an expression cassette in which a luciferase gene was ligated to the downstream side of the G0S2 promoter (−2030→+10) was constructed in the Hepa1-6 cell, which is a mouse hepatoma-derived cell. Using this cell, an effect of the candidate compounds on the luciferase activity was evaluated in the same manner as in the primary screening described above.

[8] = tested on: Bmal1 promoter; assay: Bmal1 promoter luciferase assay in MEF cell line; assay type: cell-based; conditions: MEF reporter cell line, 10 μM, 24 hours
Method: Therefore, in order to exclude compounds having an effect on clock genes in normal cells, studies were conducted using the MEF cell line stably expressing an expression cassette in which a luciferase gene was ligated to the downstream side of the Bmal1 promoter.

[9] = tested on: G0S2 promoter; assay: G0S2 promoter luciferase activity in O-4000E cell line, IC50; assay type: cell-based, mouse; conditions: Mus musculus, 24 h, O-4000E cells, 24 hours after exposure
Method: The present inventors have searched for a G0S2 gene transcription inhibitor. In searching, the present inventors have received a compound library consisting of 9600 compounds (Core library) from the Open Innovation Center for Drug Discovery, The University of Tokyo. For this compound library, primary screening was carried out by evaluating an effect of compounds on a luciferase activity using a 384-well plate. The drug efficacy evaluation was studied three times for each compound (final concentration of 10 μM) using a cell line stably expressing an expression cassette in which a luciferase gene was ligated to the downstream side of the G0S2 promoter (−2030→−1378), and compounds which reduced a luciferase activity to less than ¼ were extracted from all studies. As a result, 175 compounds were hit.
For the evaluation of drug efficacy of Compound Nos. 1 and 2, which are hit compounds, an IC50 was calculated. The O-4000E cell line was seeded, and Compound Nos. 1 and 2 were serially diluted in […] so as to have final concentrations of 0.15625 μM to 10 μM, followed by exposure of the cells to the compounds. The luciferase activity was measured 24 hours after the exposure, and the curve fitting was carried out to calculate an IC50 of the compounds.
Detailed drug efficacy evaluation at low concentrations was carried out for the compound of Example 2 (NS-3-011) whose drug efficacy at a concentration of less than 10 μM was observed based on the studies so far and which is expected to have an effect equal to or more than that of Compound No. 2. First, using O-4000E cells, IC50 of Compound No. 2 and the compound of Example 2 (NS-3-011) on the G0S2 promoter activity was calculated.

[10] = target: T1, Hsd17b4 (Peroxisomal multifunctional enzyme type 2) (Mus musculus, UniProt P51660); assay: Pull-down assay with avidin beads and LC/MS/MS identification of target protein; assay type: binding; conditions: proteins from mouse hepatocytes, avidin beads
T1 construct: Mouse hepatocytes were homogenized to extract proteins from the cytoplasm and nucleus; endogenous in cells; host or cells: mouse hepatocytes (homogenate, cytoplasmic and nuclear proteins)
T1 sequence (P51660 1-735): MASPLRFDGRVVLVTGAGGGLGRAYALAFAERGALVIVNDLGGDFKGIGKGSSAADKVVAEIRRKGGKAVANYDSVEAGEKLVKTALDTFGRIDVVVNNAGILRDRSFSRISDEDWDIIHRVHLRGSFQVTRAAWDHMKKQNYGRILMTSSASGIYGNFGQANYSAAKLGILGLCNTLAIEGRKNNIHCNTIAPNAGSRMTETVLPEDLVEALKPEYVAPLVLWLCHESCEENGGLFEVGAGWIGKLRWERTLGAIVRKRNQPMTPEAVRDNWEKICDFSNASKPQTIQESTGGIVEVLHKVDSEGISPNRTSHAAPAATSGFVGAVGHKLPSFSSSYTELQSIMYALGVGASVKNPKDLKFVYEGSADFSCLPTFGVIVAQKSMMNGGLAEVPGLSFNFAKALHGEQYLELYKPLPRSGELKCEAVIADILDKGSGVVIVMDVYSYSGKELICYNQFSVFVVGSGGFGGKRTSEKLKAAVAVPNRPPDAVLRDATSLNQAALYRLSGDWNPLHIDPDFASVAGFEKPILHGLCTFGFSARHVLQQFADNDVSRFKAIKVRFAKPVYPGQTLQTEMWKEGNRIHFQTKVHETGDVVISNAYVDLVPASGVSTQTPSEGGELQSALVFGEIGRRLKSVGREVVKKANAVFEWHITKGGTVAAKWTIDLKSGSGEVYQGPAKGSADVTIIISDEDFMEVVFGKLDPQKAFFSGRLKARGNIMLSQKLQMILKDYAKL
Method: (§2) Mouse hepatocytes were homogenized to extract proteins from the cytoplasm and nucleus. […] The chemical formulae of Compounds #142 and #151 are shown in General Formulae (13) and (14), respectively.
Thereafter, a pull-down assay was carried out with avidin-labeled magnetic beads (hereinafter, sometimes referred to as “avidin beads”), and the compounds and proteins bound to the avidin beads were subjected to acrylamide gel electrophoresis. The acrylamide gel after subjecting to electrophoresis was negatively stained, a band of a protein specifically bound to Compound #142 was excised, and the protein was identified by an LC/MS/MS analysis.
FIG. 17 is a photograph showing the results of acrylamide gel electrophoresis.

[11] = tested on: G0S2; assay: Inhibition of the expression of G0S2 (stated, test not specified); assay type: cell-based
From the text: as §2

[12] = ICR mice, DEN 80 mg/L, 14 weeks
[13] = liver, 14 weeks after start of DEN in drinking water

Compound: CCCCCCCCCCCCNC(=N)NCc1cc(C(F)(F)F)cc(C(F)(F)F)c1 [Example 10]
increase in serum ALT activity by DEN drinking water [1]: inhibited | hepatic hardening [2, 12]: inhibited | tumor formation in the liver [2, 12]: inhibited | mice (n) with large number of tumors [2, 13]: 0 n | mice (n) with number of tumors 0 [2, 13]: 3 n | mice (n) with number of tumors 1 [2, 13]: 3 n

Compound: CCCCCCNC(=N)NCCc1ccccc1 [Example 6]
expression level of G0S2 mRNA [3]: significant decrease | G0S2 mRNA expression level ([4]; 2.5 μM): significant decrease | G0S2 mRNA expression level ([4]; 5 μM): significant decrease | expression level of G0S2 mRNA [4]: up to the same extent as that of Compound 2

Compound: siRNA against Hsd17b4: siRNA against Hsd17b4, sense strand SEQ ID NO: 7, antisense strand SEQ ID NO: 8 (sense GAGCAUUAGUCAUUGUGAACGACUU; antisense AAGUCGUUCACAAUGACUAAUGCUC; listed as RNA, chemistry not given here)
expression of Hsd17b4 [5]: inhibited

Compound: O=C(Nc1cccc(S(=O)(=O)c2cccc(NC(=O)C3CC3)c2)c1)C1CC1 [Compound No. 3]
expression level of nuclear receptor RARα mRNA [6]: significant decrease | G0S2 promoter (−2030→+10) activity (relative value) [7]: less than ½ | Bmal1 promoter activity [8]: no significant change

pIC50 [9]: 5.30
Compound: CC(=O)Nc1cccc(NC(=O)CSc2nc(=O)n(N3CCN(C)CC3)c3c2CCC3)c1 [Compound No. 1]
expression level of nuclear receptor RARα mRNA [6]: no change | G0S2 promoter (−2030→+10) activity (relative value) [7]: less than ½ | Bmal1 promoter activity [8]: no significant change

protein specifically bound in pull-down assay (band of about 75 kDa) [10]: Hsd17b4
Compound: CCCCCCCCCCCCNC(=N)NCc1ccc(OCc2cn(CCOCCOCCOCCNC(=O)CCCC[C@@H]3SC[C@@H]4NC(=O)N[C@@H]43)nn2)cc1 [#142]

Compound: N=C(NCCCCCO)NCc1ccccc1 [Comparative Example 1]
inhibition of the expression of G0S2 [11]: not inhibiting the expression of G0S2

Compound: CCCCCCN/C(=N\C(=O)OC(C)(C)C)NCc1ccccc1 [Example 4]
expression level of G0S2 mRNA [4]: up to the same extent as that of Compound 2
